{"source": "paper PMC5218480", "about": "(PLoS ONE, 2017)", "tested_on": "MV-4-11 cells", "assay": "Gene expression microarray analysis (Affymetrix PrimeView) and GSEA", "format": "cell-based, human", "parameters": "RFU PODN (11730768_x_at) / Fold change /veh PODN (11730768_x_at) / RFU LINC00158 (11744669_a_at) / Fold change /veh LINC00158 (11744669_a_at) / RFU DUSP10 (11751237_a_at) / Fold change /veh DUSP10 (11751237_a_at) / RFU ID3 (11757404_x_at) / Fold change /veh ID3 (11757404_x_at) / RFU PLEKHG5 (11737974_s_at) / Fold change /veh PLEKHG5 (11737974_s_at) / RFU LRRC4B (11730491_at) / Fold change /veh LRRC4B (11730491_at) / RFU GIMAP4 (11747438_a_at) / Fold change /veh GIMAP4 (11747438_a_at) / RFU KRT8 (11758183_x_at) / Fold change /veh KRT8 (11758183_x_at) / RFU CNN1 (11734310_a_at) / Fold change /veh CNN1 (11734310_a_at) / RFU VPS37D (11726825_at) / Fold change /veh VPS37D (11726825_at) / RFU C10orf10 (11716522_x_at) / Fold change /veh C10orf10 (11716522_x_at) / RFU KIR2DL2 /// KIR2DL4 /// KIR2DL5A /// KIR2DL5B /// KIR2DS1 /// KIR2DS2 /// KIR2DS3 /// KIR2DS4 /// KIR3DL3 /// KIR3DL3 /// KIR3DS1 (11738374_at) / Fold change /veh KIR2DL2 /// KIR2DL4 /// KIR2DL5A /// KIR2DL5B /// KIR2DS1 /// KIR2DS2 /// KIR2DS3 /// KIR2DS4 /// KIR3DL3 /// KIR3DL3 /// KIR3DS1 (11738374_at) / RFU C1QL1 (11718748_at) / Fold change /veh C1QL1 (11718748_at) / RFU TMPRSS4 (11747572_a_at) / Fold change /veh TMPRSS4 (11747572_a_at) / RFU HAMP (11756126_x_at) / Fold change /veh HAMP (11756126_x_at) / RFU RNFT2 (11725882_a_at) / Fold change /veh RNFT2 (11725882_a_at) / RFU NR4A2 (11747474_a_at) / Fold change /veh NR4A2 (11747474_a_at) / RFU ABCC12 (11746883_a_at) / Fold change /veh ABCC12 (11746883_a_at) / RFU TMEM136 (11760407_x_at) / Fold change /veh TMEM136 (11760407_x_at) / RFU CLDN22 /// WWC2 (11732394_at) / Fold change /veh CLDN22 /// WWC2 (11732394_at) / RFU HLA-DPB1 (11760878_x_at) / Fold change /veh HLA-DPB1 (11760878_x_at) / RFU SPINT1 (11716480_a_at) / Fold change /veh SPINT1 (11716480_a_at) / RFU GAP43 (11754022_s_at) / Fold change /veh GAP43 (11754022_s_at) / RFU A4GNT (11735810_at) / Fold change /veh A4GNT (11735810_at) / RFU PRB3 (11715151_x_at) / Fold change /veh PRB3 (11715151_x_at) / RFU TUBB4B (11761932_at) / Fold change /veh TUBB4B (11761932_at) / RFU CAPN14 (11732068_a_at) / Fold change /veh CAPN14 (11732068_a_at) / RFU TMCC2 (11721928_a_at) / Fold change /veh TMCC2 (11721928_a_at) / RFU IRGQ (11745062_a_at) / Fold change /veh IRGQ (11745062_a_at) / RFU FAM174B (11720279_a_at) / Fold change /veh FAM174B (11720279_a_at) / RFU TMPRSS4 (11748680_a_at) / Fold change /veh TMPRSS4 (11748680_a_at) / RFU FAM212B (11763350_a_at) / Fold change /veh FAM212B (11763350_a_at) / RFU PLEKHG5 (11743358_a_at) / Fold change /veh PLEKHG5 (11743358_a_at) / RFU ZSCAN30 (11745921_a_at) / Fold change /veh ZSCAN30 (11745921_a_at) / RFU CMKLR1 (11741424_a_at) / Fold change /veh CMKLR1 (11741424_a_at) / RFU LOC101060620 /// MAPK8IP1 (11723275_at) / Fold change /veh LOC101060620 /// MAPK8IP1 (11723275_at) / RFU SPTSSB (11747773_x_at) / Fold change /veh SPTSSB (11747773_x_at) / RFU PRSS12 (11739890_at) / Fold change /veh PRSS12 (11739890_at) / RFU BIN1 (11741810_x_at) / Fold change /veh BIN1 (11741810_x_at) / RFU WNT11 (11732464_a_at) / Fold change /veh WNT11 (11732464_a_at) / RFU C10orf10 (11716521_a_at) / Fold change /veh C10orf10 (11716521_a_at) / RFU C5orf56 (11738089_at) / Fold change /veh C5orf56 (11738089_at) / RFU CYB561 (11721691_x_at) / Fold change /veh CYB561 (11721691_x_at) / RFU ANKRD19P (11752326_a_at) / Fold change /veh ANKRD19P (11752326_a_at) / RFU OR2T12 /// OR2T33 /// OR2T8 (11738714_s_at) / Fold change /veh OR2T12 /// OR2T33 /// OR2T8 (11738714_s_at) / RFU VCAN (11748164_a_at) / Fold change /veh VCAN (11748164_a_at) / RFU JSRP1 (11732532_at) / Fold change /veh JSRP1 (11732532_at) / RFU KRTAP10-11 (11738290_x_at) / Fold change /veh KRTAP10-11 (11738290_x_at) / RFU MYO3A (11730013_a_at) / Fold change /veh MYO3A (11730013_a_at) / RFU EBF3 (11725865_a_at) / Fold change /veh EBF3 (11725865_a_at) / RFU CAMK2N1 (11719241_x_at) / Fold change /veh CAMK2N1 (11719241_x_at) / RFU C5orf56 (11738088_a_at) / Fold change /veh C5orf56 (11738088_a_at) / RFU OLFML3 (11715873_a_at) / Fold change /veh OLFML3 (11715873_a_at) / RFU LOC100653217 /// NTM (11731650_a_at) / Fold change /veh LOC100653217 /// NTM (11731650_a_at) / RFU MAPK11 (11762145_a_at) / Fold change /veh MAPK11 (11762145_a_at) / RFU FIZ1 (11724087_x_at) / Fold change /veh FIZ1 (11724087_x_at) / RFU OASL (11726364_x_at) / Fold change /veh OASL (11726364_x_at) / RFU SOX15 (11748057_x_at) / Fold change /veh SOX15 (11748057_x_at) / RFU CD79A (11719716_a_at) / Fold change /veh CD79A (11719716_a_at) / RFU HIST1H1D (11736915_at) / Fold change /veh HIST1H1D (11736915_at) / RFU CASKIN2 (11723855_a_at) / Fold change /veh CASKIN2 (11723855_a_at) / RFU LOC730098 (11760151_x_at) / Fold change /veh LOC730098 (11760151_x_at) / RFU OR4N2 (11742367_at) / Fold change /veh OR4N2 (11742367_at) / RFU PRRT2 (11749266_a_at) / Fold change /veh PRRT2 (11749266_a_at) / RFU SNX32 (11753110_a_at) / Fold change /veh SNX32 (11753110_a_at) / RFU CDHR5 (11726645_a_at) / Fold change /veh CDHR5 (11726645_a_at) / RFU RCAN1 (11760418_a_at) / Fold change /veh RCAN1 (11760418_a_at) / RFU FAM167A (11723789_a_at) / Fold change /veh FAM167A (11723789_a_at) / RFU FAM26E (11764081_at) / Fold change /veh FAM26E (11764081_at) / RFU ISYNA1 (11749810_s_at) / Fold change /veh ISYNA1 (11749810_s_at) / RFU ACY1 (11761880_at) / Fold change /veh ACY1 (11761880_at) / RFU 11764098_at / Fold change /veh 11764098_at / RFU SAMD14 (11745864_x_at) / Fold change /veh SAMD14 (11745864_x_at) / RFU NPB (11741838_a_at) / Fold change /veh NPB (11741838_a_at) / RFU TMPRSS6 (11731388_a_at) / Fold change /veh TMPRSS6 (11731388_a_at) / RFU KRTAP10-2 (11738614_at) / Fold change /veh KRTAP10-2 (11738614_at) / RFU ARHGAP8 /// PRR5-ARHGAP8 (11727945_x_at) / Fold change /veh ARHGAP8 /// PRR5-ARHGAP8 (11727945_x_at) / RFU KRTAP5-7 /// NADSYN1 (11734609_at) / Fold change /veh KRTAP5-7 /// NADSYN1 (11734609_at) / RFU RASL12 (11751679_a_at) / Fold change /veh RASL12 (11751679_a_at) / RFU CDKN2B (11736163_a_at) / Fold change /veh CDKN2B (11736163_a_at) / RFU PRF1 (11729649_at) / Fold change /veh PRF1 (11729649_at) / RFU, ZNF638 /// ZNF638-IT1 / Fold change vs veh, ZNF638 /// ZNF638-IT1 / RFU, PANK3 / Fold change vs veh, PANK3 / RFU, SH3YL1 / Fold change vs veh, SH3YL1 / RFU, ZEB2 / Fold change vs veh, ZEB2 / RFU, NRIP1 / Fold change vs veh, NRIP1 / RFU, PTTG1IP / Fold change vs veh, PTTG1IP / RFU, CAPN2 / Fold change vs veh, CAPN2 / RFU, MED14 / Fold change vs veh, MED14 / RFU, SNORA58 / Fold change vs veh, SNORA58 / RFU, C1orf63 / Fold change vs veh, C1orf63 / RFU, LRRFIP1 / Fold change vs veh, LRRFIP1 / RFU, NDUFAF7 / Fold change vs veh, NDUFAF7 / RFU, SLC12A2 / Fold change vs veh, SLC12A2 / RFU, IBTK / Fold change vs veh, IBTK / RFU, ESF1 / Fold change vs veh, ESF1 / Fold change vs veh, TMEM50B / RFU, TAOK1 / Fold change vs veh, TAOK1 / RFU, ACBD3 / Fold change vs veh, ACBD3 / RFU, TMA16 / Fold change vs veh, TMA16 / RFU, RWDD3 / Fold change vs veh, RWDD3 / RFU, BCAT1 / Fold change vs veh, BCAT1 / RFU, EDEM3 / Fold change vs veh, EDEM3 / RFU, TMEM33 / Fold change vs veh, TMEM33 / RFU, WDR75 / Fold change vs veh, WDR75 / RFU, AHCTF1 / Fold change vs veh, AHCTF1 / RFU, TFRC / Fold change vs veh, TFRC / RFU, ZDHHC17 / Fold change vs veh, ZDHHC17 / RFU, NOM1 / Fold change vs veh, NOM1 / RFU, ARL8B / Fold change vs veh, ARL8B / RFU, ZBTB11 / Fold change vs veh, ZBTB11 / RFU, TAMM41 / Fold change vs veh, TAMM41 / RFU, KIAA1704 /// LOC100996395 / Fold change vs veh, KIAA1704 /// LOC100996395 / RFU, ING1 / Fold change vs veh, ING1 / RFU, TRMT61B / Fold change vs veh, TRMT61B / RFU, FUBP3 / Fold change vs veh, FUBP3 / RFU, TP53 / Fold change vs veh, TP53 / RFU, TNKS2 / Fold change vs veh, TNKS2 / RFU, ZFP14 / Fold change vs veh, ZFP14 / RFU, ACTR2 / Fold change vs veh, ACTR2 / RFU, PPP3R1 / Fold change vs veh, PPP3R1 / RFU, PIK3R1 / Fold change vs veh, PIK3R1 / RFU, HNRNPA1 / Fold change vs veh, HNRNPA1 / RFU, RNF170 / Fold change vs veh, RNF170 / RFU, ZNF28 / Fold change vs veh, ZNF28 / RFU, RNGTT / Fold change vs veh, RNGTT / RFU, OGT / Fold change vs veh, OGT / RFU, BRD1 / Fold change vs veh, BRD1 / RFU, MARS / Fold change vs veh, MARS / RFU, ZNF655 / Fold change vs veh, ZNF655 / RFU, FAHD1 / Fold change vs veh, FAHD1 / RFU, BDP1 / Fold change vs veh, BDP1 / RFU, LRRCC1 / Fold change vs veh, LRRCC1 / RFU, ARID1A / Fold change vs veh, ARID1A / RFU, ZNF146 / Fold change vs veh, ZNF146 / RFU, ZNF330 / Fold change vs veh, ZNF330 / RFU, GPN3 / Fold change vs veh, GPN3 / RFU, C9orf123 / Fold change vs veh, C9orf123 / RFU, N4BP2L2 / Fold change vs veh, N4BP2L2 / RFU, ARFIP1 / Fold change vs veh, ARFIP1 / RFU, FAM179B / Fold change vs veh, FAM179B / RFU, BCL10 / Fold change vs veh, BCL10 / RFU, UHRF1BP1L / Fold change vs veh, UHRF1BP1L / RFU, BET1 / Fold change vs veh, BET1 / RFU, CNOT2 / Fold change vs veh, CNOT2 / RFU, ZNF268 / Fold change vs veh, ZNF268 / Fold change vs veh, ZNF507 / RFU, DGCR2 / Fold change vs veh, DGCR2 / RFU, WDSUB1 / Fold change vs veh, WDSUB1 / Fold change vs veh, HSP90B1 /// MIR3652 / RFU, ADSS / Fold change vs veh, ADSS / RFU, GK / Fold change vs veh, GK / RFU, ZNF148 / Fold change vs veh, ZNF148 / RFU, TAF9 / Fold change vs veh, TAF9 / RFU, SLC1A5 / Fold change vs veh, SLC1A5 / RFU, SLMO2 / Fold change vs veh, SLMO2 / RFU, ABCC4 / Fold change vs veh, ABCC4 / RFU, LOC101060439 /// RAP1B / Fold change vs veh, LOC101060439 /// RAP1B / RFU, RFX7 / Fold change vs veh, RFX7 / RFU, GTPBP10 / Fold change vs veh, GTPBP10 / RFU, CNEP1R1 / Fold change vs veh, CNEP1R1 / RFU, BIVM-ERCC5 /// ERCC5 / Fold change vs veh, BIVM-ERCC5 /// ERCC5 / RFU, ILF3 / Fold change vs veh, ILF3 / RFU 11762660_at / Fold change /veh 11762660_at / RFU VCAN (11757783_s_at) / Fold change /veh VCAN (11757783_s_at) / RFU DDX43 (11728927_at) / Fold change /veh DDX43 (11728927_at) / RFU KRT8 (11758188_x_at) / Fold change /veh KRT8 (11758188_x_at) / RFU NKD1 (11759106_at) / Fold change /veh NKD1 (11759106_at) / RFU SRD5A1 (11742802_a_at) / Fold change /veh SRD5A1 (11742802_a_at) / RFU TPSAB1 /// TPSB2 (11721975_s_at) / Fold change /veh TPSAB1 /// TPSB2 (11721975_s_at) / RFU GSTM3 (11746129_a_at) / Fold change /veh GSTM3 (11746129_a_at) / RFU IL23R (11737362_x_at) / Fold change /veh IL23R (11737362_x_at) / RFU TMEM51 (11727254_a_at) / Fold change /veh TMEM51 (11727254_a_at) / RFU PIWIL2 (11732686_x_at) / Fold change /veh PIWIL2 (11732686_x_at) / RFU ORM1 (11744905_x_at) / Fold change /veh ORM1 (11744905_x_at) / RFU CCDC152 (11743942_at) / Fold change /veh CCDC152 (11743942_at) / RFU ECM1 (11717891_a_at) / Fold change /veh ECM1 (11717891_a_at) / RFU IL23R (11748794_a_at) / Fold change /veh IL23R (11748794_a_at) / RFU TNFAIP8L3 (11732012_x_at) / Fold change /veh TNFAIP8L3 (11732012_x_at) / RFU MBOAT4 (11741988_at) / Fold change /veh MBOAT4 (11741988_at) / RFU 11764193_at / Fold change /veh 11764193_at / RFU TMEM53 (11763286_at) / Fold change /veh TMEM53 (11763286_at) / RFU MAGEB2 (11727129_at) / Fold change /veh MAGEB2 (11727129_at) / RFU TMEM200A (11744735_a_at) / Fold change /veh TMEM200A (11744735_a_at) / RFU CCDC152 (11751479_a_at) / Fold change /veh CCDC152 (11751479_a_at) / RFU FAM211A (11726209_a_at) / Fold change /veh FAM211A (11726209_a_at) / RFU RGS16 (11746705_a_at) / Fold change /veh RGS16 (11746705_a_at) / RFU VCAN (11755009_s_at) / Fold change /veh VCAN (11755009_s_at) / RFU RHOB (11743442_s_at) / Fold change /veh RHOB (11743442_s_at) / RFU RGS16 (11720943_a_at) / Fold change /veh RGS16 (11720943_a_at) / RFU RGS16 (11720944_at) / Fold change /veh RGS16 (11720944_at) / RFU, VPS4B / Fold change vs veh, VPS4B / RFU, CREB1 / Fold change vs veh, CREB1 / RFU, DNAJC13 / Fold change vs veh, DNAJC13 / RFU, GNAQ / Fold change vs veh, GNAQ / RFU, CDK5R1 / Fold change vs veh, CDK5R1 / RFU, ZRANB3 / Fold change vs veh, ZRANB3 / RFU, CUL4A / Fold change vs veh, CUL4A / RFU, CCNY / Fold change vs veh, CCNY / RFU, UFL1 / Fold change vs veh, UFL1 / RFU, COG3 / Fold change vs veh, COG3 / RFU, DIAPH2 / Fold change vs veh, DIAPH2 / RFU, SKA2 / Fold change vs veh, SKA2 / RFU, AFF3 / Fold change vs veh, AFF3 / RFU, LMF1 / Fold change vs veh, LMF1 / RFU, IPO11 / Fold change vs veh, IPO11 / RFU, DFFB / Fold change vs veh, DFFB / RFU, FOXP1 / Fold change vs veh, FOXP1 / RFU, CARD8 / Fold change vs veh, CARD8 / RFU, STRN3 / Fold change vs veh, STRN3 / RFU, ADK / Fold change vs veh, ADK / RFU, RASSF2 / Fold change vs veh, RASSF2 / RFU, WIPF1 / Fold change vs veh, WIPF1 / RFU, LARP1B / Fold change vs veh, LARP1B / RFU, RASA1 / Fold change vs veh, RASA1 / RFU, RB1 / Fold change vs veh, RB1 / RFU, PPFIA1 / Fold change vs veh, PPFIA1 / RFU, MAT2A / Fold change vs veh, MAT2A / RFU, CCT5 / Fold change vs veh, CCT5 / RFU, WDR92 / Fold change vs veh, WDR92 / RFU, CUX1 / Fold change vs veh, CUX1 / RFU, TTC7A / Fold change vs veh, TTC7A / RFU, TMEM135 / Fold change vs veh, TMEM135 / RFU, DEPTOR / Fold change vs veh, DEPTOR / RFU, CPM / Fold change vs veh, CPM / RFU, DNAJB6 / Fold change vs veh, DNAJB6 / RFU, CACNA2D3 / Fold change vs veh, CACNA2D3 / RFU, DTX4 / Fold change vs veh, DTX4 / RFU, TFCP2 / Fold change vs veh, TFCP2 / RFU, GMCL1 /// GMCL1P1 / Fold change vs veh, GMCL1 /// GMCL1P1 / RFU, AEBP2 / Fold change vs veh, AEBP2 / RFU, SNHG1 /// SNORD22 /// SNORD25 /// SNORD26 /// SNORD27 /// SNORD28 /// SNORD29 /// SNORD31 / Fold change vs veh, SNHG1 /// SNORD22 /// SNORD25 /// SNORD26 /// SNORD27 /// SNORD28 /// SNORD29 /// SNORD31 / Fold change (Aza/veh), C12orf56 (ProbeSet 11735607_a_at) / Fold change (ACY-1035/veh), C12orf56 (ProbeSet 11735607_a_at) / Fold change (Aza/veh), FGFR1OP (ProbeSet 11751329_s_at) / Fold change (ACY-1035/veh), FGFR1OP (ProbeSet 11751329_s_at) / Fold change (Aza/veh), VPS36 (ProbeSet 11739960_a_at) / Fold change (ACY-1035/veh), VPS36 (ProbeSet 11739960_a_at) / RFU SYPL1 (11715823_x_at) / Fold change /veh SYPL1 (11715823_x_at) / RFU IGFBP7 (11715501_s_at) / Fold change /veh IGFBP7 (11715501_s_at) / RFU REEP3 (11722064_at) / Fold change /veh REEP3 (11722064_at) / RFU IGLL1 (11728026_x_at) / Fold change /veh IGLL1 (11728026_x_at): dose or concentration left out as unconfirmed", "conditions": "ProbeSet 11715478_a_at; LIST B"}
{"smiles": "Nc1ncn([C@@H]2O[C@H](CO)[C@@H](O)[C@H]2O)c(=O)n1", "note": "[azacitidine]", "values": [{"measurement": "RFU, TFRC", "value": 131.21, "unit": "RFU"}]}
